Results taken from patent US10660318B2, “Non-mammalian RAS transgenic animal model” (Tosk, Inc., priority 2013, dated 2020).

System: mutated kRAS/kRAS x MS1096 fly (human kRAS G12V expressed in the wing)
Assay: Screening for drugs that reverse the wing phenotype of the mutated kRAS/kRAS x MS1096 fly
Type: in vivo, Drosophila
Conditions: for rescue from the crumpled/kringled wing phenotype: 10 μM test article in fly food, embryos to adults, 25° C., 14 days, FIG. 8
Procedure: Male mutated kRAS/kRAS flies were bred overnight with female MS1096/GAL4 flies in a fly condo^2 with a grape agar plate floor. The resulting embryos were gently dislodged from the grape agar plate using a squirt bottle containing 0.7% NaCl, 0.03% Triton X-100 In distilled water. The embryos were counted and then dissolved in a solution containing 14.4% sucrose, 0.7% NaCl and 0.05% Triton to give a concentration of 15 embryos/10 μL of solution. ^2 Sullivan W, Ashburner M, Hawley, S R, Drosophila Protocols 2000, Cold Spring Harbor Laboratory Press, pp 541-551.
The test article, 1-benzyl-2-phenyl-1H-benzo[d]imidazole which is a deltarasin analog with activity againsy RAS signaling,^1 was dissolved in DMSO to give a concentration of 10 mM. The deltarasin analog inhibitor was synthesized at the Tosk facility. Four μL of this solution, 100 μL of the embryo solution (150 embryos), ½ teaspoon blue fly food (North Carolina, catalogue number 173216) and 4 ml of water were combined in a vial (VWR, catalogue number 89092-720) and capped (VWR, catalogue number 89168-886). Using the recipe provided above, the final concentration of test article in the mixture was 10 μM.
The vials were placed in a 25° C. incubator for 14 days after which they. were examined for the percentage of flies with crumpled/kringled wings. […] The goal for screening chemicals for anti-kRAS activity is to achieve in the kRAS mutant fly the rescue from the crumpled/kringled wing phenotype achieved with the deltarasin analog.

[1] = flies rescued by treatment with a test article, compared with control and kRAS mutant flies

## c1ccc(Cn2c(-c3ccccc3)nc3ccccc32)cc1 [test article, 1-benzyl-2-phenyl-1H-benzo[d]imidazole]
  rescue from the crumpled/kringled wing phenotype: significantly less crumpled/kringled although still non-functional
Listed as deltarasin analog
  rescue from the crumpled/kringled wing phenotype: rescued
Compared with the same regions in kRAS mutant flies
  typical appearance of wings: vein-free region (Rescued): Vein-free region is considerably
[1]
  ability to take flight (Rescued): Unable to take flight
  typical appearance of wings: position relative to fly body in idle state (Rescued): Wings tend to be parallel to the fly
  typical appearance of wings: size and shape (Rescued): Medium, semi-flat and less crinkled
  typical appearance of wings: transparency (Rescued): Slightly translucent wings
  typical appearance of wings: wing veins (Rescued): Slightly aberrant wing “veins.”
